Experimental data as given in US20240116985A1, “STAPLED PEPTIDES AND METHODS THEREOF” (priority 2020, published 2024).
Values after ≈ are worked out from the molar mass of the structure shown. Read-outs that look alike come from different tables or passages of the source.

What was measured:
Solubility in PBS = format: physicochemical
How it was run: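 Solubility is derived from HPLC peak areas: the ratio of the PBS supernatant peak to a 50 μM DMSO peptide peak, times 50 uM.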

CHI Log D procedure = format: physicochemical; conditions: for chromatographic logD: pH 7.4, CHI Log D; for CHI Log D: pH 7.4
[1] = biological target: T1, full-length beta-Catenin (Uniprot ID P35222) (Homo sapiens, UniProt P35222); experiment: Fluorescence polarization IC50 (beta-catenin / 5FAM-TCF4 10-53 competition); format: binding
T1 construct: 10 nM full-length beta-Catenin (Uniprot ID P35222)
T1 sequence (P35222 1-781): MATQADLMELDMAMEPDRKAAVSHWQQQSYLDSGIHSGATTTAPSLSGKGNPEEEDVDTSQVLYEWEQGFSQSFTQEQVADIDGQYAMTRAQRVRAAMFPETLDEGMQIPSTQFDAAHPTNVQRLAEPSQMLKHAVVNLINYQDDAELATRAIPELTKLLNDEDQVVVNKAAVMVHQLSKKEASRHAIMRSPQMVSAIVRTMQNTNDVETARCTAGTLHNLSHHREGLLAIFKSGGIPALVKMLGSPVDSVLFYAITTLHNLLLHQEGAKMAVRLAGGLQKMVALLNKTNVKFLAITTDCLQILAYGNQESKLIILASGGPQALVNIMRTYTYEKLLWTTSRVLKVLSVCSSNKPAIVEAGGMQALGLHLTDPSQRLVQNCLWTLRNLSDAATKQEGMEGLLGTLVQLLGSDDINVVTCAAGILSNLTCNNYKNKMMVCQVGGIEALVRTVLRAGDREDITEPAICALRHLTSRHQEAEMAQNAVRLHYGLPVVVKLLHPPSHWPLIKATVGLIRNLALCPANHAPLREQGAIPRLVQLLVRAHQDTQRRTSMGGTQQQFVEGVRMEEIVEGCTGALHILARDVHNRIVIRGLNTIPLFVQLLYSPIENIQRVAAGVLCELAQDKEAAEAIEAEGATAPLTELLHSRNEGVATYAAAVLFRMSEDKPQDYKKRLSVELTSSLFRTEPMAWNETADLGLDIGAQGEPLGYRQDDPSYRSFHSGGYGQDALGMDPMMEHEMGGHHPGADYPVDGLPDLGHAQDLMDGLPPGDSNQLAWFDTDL

[2] = fluorescence polarization, read-out: beta-Catenin FP IC50

Structure (SMILES) | Solubility (Solubility in PBS; Solubility (uM)) [µM] | chromatographic logD (CHI Log D procedure) | IC50 [1, 2] [nM] | Solubility (Solubility in PBS) [µM] | CHI Log D (CHI Log D procedure) | IC50 ([1]; read-out: FP EC50) [nM]
CC[C@H](NC(=O)[C@H](Cc1csc2ccccc12)NC(=O)[C@H](Cc1ccccc1)NC(=O)[C@]1(C)CCCCCCC=CCCCC2(CCCC=CC[C@]3(CCCN3C(C)=O)C(=O)N[C@@H](CC(=O)O)C(=O)N[C@@H](C)C(=O)N2)C(=O)N[C@@H](CC(=O)O)C(=O)N[C@@H](CCC(=O)O)C(=O)N[C@@H](C)C(=O)N[C@@H](C)C(=O)N[C@@H](Cc2ccccc2)C(=O)N[C@@H](CCC(N)=O)C(=O)N1)C(N)=O (stereo partly drawn) [I-509, Ac-PL3-Asp-Ala-B5-Asp-Glu-Ala-Ala-Phe-Gln-S8-Phe-BztA-Abu-NH2] | 41 (≈ 73.7 µg/mL) | 2.16 | 99 |  |  | 
COc1ccccc1C[C@H](NC(=O)[C@]1(C)CCCCCCC=CCCCC2(CCCC=CC[C@]3(CCCN3C(C)=O)C(=O)N[C@@H](CC(=O)O)C(=O)N[C@@H](C)C(=O)N2)C(=O)N[C@@H](CC(=O)O)C(=O)N[C@@H](CCC(=O)O)C(=O)N[C@@H](C)C(=O)N[C@@H](C)C(=O)N[C@@H](Cc2ccccc2)C(=O)N[C@@H](CC(N)=O)C(=O)N1)C(=O)N[C@@H](Cc1csc2ccccc12)C(=O)N[C@@H](Cc1c[nH]cn1)C(N)=O (stereo partly drawn) [I-510, Ac-PL3-Asp-Ala-B5-Asp-Glu-Ala-Ala-Phe-Asn-S8-2OMeF-BztA-His-NH2] |  |  | 128 | 43 (≈ 80.2 µg/mL) | 2.057 | 128
COc1ccccc1C[C@H](NC(=O)[C@]1(C)CCCCCCC=CCCCC2(CCCC=CC[C@]3(CCCN3C(C)=O)C(=O)N[C@@H](CC(=O)O)C(=O)N[C@@H](C)C(=O)N2)C(=O)N[C@@H](CC(=O)O)C(=O)N[C@@H](CCC(=O)O)C(=O)N[C@@H](C)C(=O)N[C@@H](C)C(=O)N[C@@H](Cc2ccccc2)C(=O)N[C@@H](CC(N)=O)C(=O)N1)C(=O)N[C@@H](Cc1csc2ccccc12)C(=O)N[C@@H](Cc1c[nH]cn1)C(N)=O (stereo partly drawn) [I-511, Ac-PL3-Asp-Ala-B5-Asp-Glu-Ala-Ala-Phe-Asn-S8-2OMeF-BztA-His-NH2] |  |  | 40 | 29 (≈ 54.1 µg/mL) | 2.099 | 40
CC(=O)N1CCC[C@]12CC=CCCCC1(CCCC=CCCCCCC[C@@](C)(C(=O)N[C@@H](Cc3ccsc3)C(=O)N[C@@H](Cc3csc4ccccc34)C(=O)N[C@@H](CCC(N)=O)C(N)=O)NC(=O)[C@H](CC(N)=O)NC(=O)[C@H](Cc3ccccc3)NC(=O)[C@H](C)NC(=O)[C@H](C)NC(=O)[C@H](CCC(=O)O)NC(=O)[C@H](CC(=O)O)NC1=O)NC(=O)[C@H](C)NC(=O)[C@H](CC(=O)O)NC2=O (stereo partly drawn) [I-518, Ac-PL3-Asp-Ala-B5-Asp-Glu-Ala-Ala-Phe-Asn-S8-3Thi-BztA-Gln-NH2] |  |  | 143 | 39 (≈ 71.5 µg/mL) | 1.966 | 143
CC[C@H](C)[C@@H]1NC(=O)[C@H](CC(=O)O)NC(=O)[C@]2(CC=CCCCC3(CCCC=CCCCCCC[C@@](C)(C(=O)N[C@@H](Cc4ccsc4)C(=O)N[C@@H](Cc4csc5ccccc45)C(=O)N[C@@H](CCC(N)=O)C(N)=O)NC(=O)[C@H](CC(N)=O)NC(=O)[C@H](Cc4ccccc4)NC(=O)[C@H](C)NC(=O)[C@H](C)NC(=O)[C@H](CCC(=O)O)NC(=O)[C@H](CC(=O)O)NC3=O)NC1=O)CCCN2C(C)=O (stereo partly drawn) [I-520, Ac-PL3-Asp-Ile-B5-Asp-Glu-Ala-Ala-Phe-Asn-S8-3Thi-BztA-Gln-NH2] |  |  | 45 | 50 (≈ 93.8 µg/mL) | 2.313 | 45

More lines, in order of falling IC50 [1, 2], values ahead:

Solubility (Solubility in PBS; Solubility (uM)) [µM] | chromatographic logD (CHI Log D procedure) | IC50 [1, 2] [nM] | Solubility (Solubility in PBS) [µM] | CHI Log D (CHI Log D procedure) | IC50 ([1]; read-out: FP EC50) [nM] | Structure (SMILES)
 |  | 192 | 47 (≈ 85.3 µg/mL) | 2.079 | 192 | CC(=O)N1CCC[C@]12CC=CCCCC1(CCCC=CCCCCCC[C@@](C)(C(=O)N[C@@H](Cc3ccccc3)C(=O)N[C@@H](Cc3csc4ccccc34)C(=O)N[C@H](C(N)=O)[C@@H](C)O)NC(=O)[C@H](CCC(N)=O)NC(=O)[C@H](Cc3ccccc3)NC(=O)[C@H](C)NC(=O)[C@H](C)NC(=O)[C@H](CCC(=O)O)NC(=O)[C@H](CC(=O)O)NC1=O)NC(=O)[C@H](C)NC(=O)[C@H](CC(=O)O)NC2=O (stereo partly drawn) [I-507, Ac-PL3-Asp-Ala-B5-Asp-Glu-Ala-Ala-Phe-Gln-S8-Phe-BztA-Thr-NH2]
 | 1.57 | 143 | 50 (≈ 94 µg/mL) |  |  | CC(=O)N1CCC[C@]12CC=CCCCC1(CCCC=CCCCCCC[C@@](C)(C(=O)N[C@@H](Cc3ccccc3C(N)=O)C(=O)N[C@@H](Cc3csc4ccccc34)C(=O)N[C@@H](Cc3c[nH]cn3)C(N)=O)NC(=O)[C@H](CC(N)=O)NC(=O)[C@H](Cc3ccccc3)NC(=O)[C@H](C)NC(=O)[C@H](C)NC(=O)[C@H](CCC(=O)O)NC(=O)[C@H](CC(=O)O)NC1=O)NC(=O)[C@H](C)NC(=O)[C@H](CC(=O)O)NC2=O (stereo partly drawn) [I-513, Ac-PL3-Asp-Ala-B5-Asp-Glu-Ala-Ala-Phe-Asn-S8-2CBMF-BztA-His-NH2]
33 (≈ 62.4 µg/mL) | 2.09 | 84 |  |  |  | CC(=O)N1CCC[C@]12CC=CCCCC1(CCCC=CCCCCCC[C@@](C)(C(=O)N[C@@H](Cc3ccccc3)C(=O)N[C@@H](Cc3csc4ccccc34)C(=O)N[C@@H](CCC(N)=O)C(N)=O)NC(=O)[C@H](CCC(N)=O)NC(=O)[C@H](Cc3ccccc3)NC(=O)[C@H](C)NC(=O)[C@H](C)NC(=O)[C@H](CCC(=O)O)NC(=O)[C@H](CC(=O)O)NC1=O)NC(=O)[C@H](CC(F)F)NC(=O)[C@H](CC(=O)O)NC2=O (stereo partly drawn) [I-503, Ac-PL3-Asp-HF2CA-B5-Asp-Glu-Ala-Ala-Phe-Gln-S8-Phe-BztA-Gln-NH2]
 |  | 75 | 50 (≈ 93.5 µg/mL) | 2.214 | 75 | CCC[C@@H]1NC(=O)[C@H](CC(=O)O)NC(=O)[C@]2(CC=CCCCC3(CCCC=CCCCCCC[C@@](C)(C(=O)N[C@@H](Cc4ccccc4)C(=O)N[C@@H](Cc4csc5ccccc45)C(=O)N[C@@H](CCC(N)=O)C(N)=O)NC(=O)[C@H](CCC(N)=O)NC(=O)[C@H](Cc4ccccc4)NC(=O)[C@H](C)NC(=O)[C@H](C)NC(=O)[C@H](CCC(=O)O)NC(=O)[C@H](CC(=O)O)NC3=O)NC1=O)CCCN2C(C)=O (stereo partly drawn) [I-522, Ac-PL3-Asp-Nva-B5-Asp-Glu-Ala-Ala-Phe-Gln-S8-Phe-BztA-Gln-NH2]
 |  | 73 | 50 (≈ 90.7 µg/mL) | 2.126 | 73 | CC(=O)N1CCC[C@]12CC=CCCCC1(CCCC=CCCCCCC[C@@](C)(C(=O)N[C@@H](Cc3ccccc3)C(=O)N[C@@H](Cc3csc4ccccc34)C(=O)N[C@H](C(N)=O)[C@@H](C)O)NC(=O)[C@H](CCC(N)=O)NC(=O)[C@H](Cc3ccccc3)NC(=O)[C@H](C)NC(=O)[C@H](C)NC(=O)[C@H](CCC(=O)O)NC(=O)[C@H](CC(=O)O)NC1=O)NC(=O)[C@H](C)NC(=O)[C@H](CC(=O)O)NC2=O (stereo partly drawn) [I-508, Ac-PL3-Asp-Ala-B5-Asp-Glu-Ala-Ala-Phe-Gln-S8-Phe-BztA-Thr-NH2]
18 (≈ 34.5 µg/mL) | 2.22 | 65 |  |  |  | CC(=O)N1CCC[C@]12CC=CCCCC1(CCCC=CCCCCCC[C@@](C)(C(=O)N[C@@H](Cc3ccccc3)C(=O)N[C@@H](Cc3csc4ccccc34)C(=O)N[C@@H](Cc3c[nH]cn3)C(N)=O)NC(=O)[C@H](CCC(N)=O)NC(=O)[C@H](Cc3ccccc3)NC(=O)[C@H](C)NC(=O)[C@H](C)NC(=O)[C@H](CCC(=O)O)NC(=O)[C@H](CC(=O)O)NC1=O)NC(=O)[C@H](CC(F)(F)F)NC(=O)[C@H](CC(=O)O)NC2=O (stereo partly drawn) [I-504, Ac-PL3-Asp-F3CA-B5-Asp-Glu-Ala-Ala-Phe-Gln-S8-Phe-BztA-His-NH2]
 |  | 54 | 46 (≈ 84.7 µg/mL) | 2.028 | 54 | CC(=O)N1CCC[C@]12CC=CCCCC1(CCCC=CCCCCCC[C@@](C)(C(=O)N[C@@H](Cc3ccsc3)C(=O)N[C@@H](Cc3csc4ccccc34)C(=O)N[C@@H](Cc3c[nH]cn3)C(N)=O)NC(=O)[C@H](CC(N)=O)NC(=O)[C@H](Cc3ccccc3)NC(=O)[C@H](C)NC(=O)[C@H](C)NC(=O)[C@H](CCC(=O)O)NC(=O)[C@H](CC(=O)O)NC1=O)NC(=O)[C@H](C)NC(=O)[C@H](CC(=O)O)NC2=O (stereo partly drawn) [I-515, Ac-PL3-Asp-Ala-B5-Asp-Glu-Ala-Ala-Phe-Asn-S8-3Thi-BztA-His-NH2]
 |  | 23 | 42 (≈ 77.4 µg/mL) | 2.072 | 23 | CC(=O)N1CCC[C@]12CC=CCCCC1(CCCC=CCCCCCC[C@@](C)(C(=O)N[C@@H](Cc3ccsc3)C(=O)N[C@@H](Cc3csc4ccccc34)C(=O)N[C@@H](Cc3c[nH]cn3)C(N)=O)NC(=O)[C@H](CC(N)=O)NC(=O)[C@H](Cc3ccccc3)NC(=O)[C@H](C)NC(=O)[C@H](C)NC(=O)[C@H](CCC(=O)O)NC(=O)[C@H](CC(=O)O)NC1=O)NC(=O)[C@H](C)NC(=O)[C@H](CC(=O)O)NC2=O (stereo partly drawn) [I-516, Ac-PL3-Asp-Ala-B5-Asp-Glu-Ala-Ala-Phe-Asn-S8-3Thi-BztA-His-NH2]
